Results from patent US12083230B2, “Nano-encapsulation using GRAS materials and applications thereof” (priority 2015, dated 2024).

Key:
[1] = cited from earlier work; for Log D: pH 7.4
[2] = Nile Red encapsulation efficiency by UV-Vis of flow through after centrifugal filtration; type: physicochemical; conditions: in Zn/CAS-VitE-Ac NPs, all stable formulations (0.2%-5 wt.%)
Description: The utility of an encapsulation method depends on its encapsulation capacity and efficiency for various compounds. […] Nile Red was encapsulated at 0.2%-5 wt. %. At 0.1% wt. […] Encapsulation efficiency of Nile Red in Zn/CAS-VitE-Ac NPs was >98% for all stable formulations as determined by UV-Vis measurement of the flow through after centrifugal filtration (FIG. 7). With increasing Nile Red concentration in the core, the mean nanoparticle diameter increases (FIG. 6b). The florescence intensity is expected to increase with higher dye loading per particle. This can be seen in FIGS. 6(c) and 6(d) for two different wavelengths (500 nm excitation, 690 nm emission) and core loadings of 0.2-1% wt.

[3] = Nanoparticle solution stability (milliQ H2O, PBS pH7.4, LB50, 2% bile salts, pH2.0) by DLS; type: physicochemical; conditions: 10% wt. Nile Red loading
Procedure: Using a Zetasizer® Nano-ZS (Malvern instruments, Malvern, UK), dynamic light scattering (DLS) size measurements were performed on samples directly after FNP. Samples were diluted with ultra-pure water to avoid multiple scattering and analyzed at 25° C. using a detection angle of 173°. The reported size is the intensity-weighted average diameter as reported by the Malvern deconvolution software in Normal Mode analysis.
Initially, nanoparticle formulations were screened for stability at physiologic conditions (PBS) and conditions relevant to the in vitro model of V. cholera.
Various zein-to-casein ratios were produced to further investigate formulation stability in physiological environments relevant to oral delivery. Zein to casein ratios 4:1, 2:1, and 1:1 FIG. 17 in PBS, pH2.0, LB50 and 2% bile salts were investigated.

[4] = test system: V. cholera cultures; test: Growth of V. cholera cultures at 37° C.; type: cell-based; conditions: during the time tested
Procedure: FIG. 10(b) illustrates growth of V. cholera cultures at 37° C. in response to addition of CAI-1-loaded Zein/CAS/VitE-Ac nanoparticles according to some embodiments described herein.
Changes in size and PDI could only be observed for the three-fold protein per amount of drug formulation (FIG. 9a). […] All parts of the formulation were necessary for the formation of nanoparticles with defined size. […] FNP of CAI-1 alone yielded a polydisperse emulsion, which then agglomerated and settled out over time.

[5] = test system: V. cholerae WN1102; test: Bioluminescence response of V. cholerae WN1102 (in vitro bioactivity assay); type: cell-based; conditions: suggested by bioactivity of the flow through
Description: FIG. 10(a) illustrates bioluminescence response of V. cholerae WN1102 supplemented with varying amounts of CAI-1-loaded Zein/CAS/VitE-Ac composite nanoparticles in PBS according to some embodiments described herein.
The bioactivity of blank Zein/CAS/VitEA particles was not detectable (FIG. 10b). […] The flow-through after centrifugal filtration can be regarded as a correlate for encapsulation efficiency of CAI-1. Bioactivity of the flow through was observed only at very high concentrations, approximately 1,000-10,000-fold higher than CAI-1 NPs.

| SMILES | log P [1] | Log D [1] | also measured |
| --- | --- | --- | --- |
| Nc1ccc(O)c(C(=O)O)c1 [Mesalazine] | 0.46 | -1.98 |  |
| c1cc2ccc3cccc4ccc(c1)c2c34 [Pyrene] | 5.17 | 4.92 |  |
| CCN(CC)c1ccc2nc3c4ccccc4c(=O)cc-3oc2c1 [Nile Red] |  | 4.46 | Encapsulation efficiency of Nile Red [2]: > 98%; NP behaviour after FNP at high dye loading [3]: immediate aggregation of NPs |
| CCCCCCCCCC(=O)[C@@H](O)CC [CAI-1] |  | 4.30 | Effect on the growth of cells [4]: no apparent effect; Encapsulation efficiency of CAI-1 during FNP [5]: > 98% |
| CN(C)c1ccc(/N=N/c2ccccc2C(=O)O)cc1 [Methyl Red] |  | 1.46 |  |
| NC(=O)CC[C@@H]1NC(=O)[C@H](Cc2ccccc2)NC(=O)[C@H](Cc2ccc(O)cc2)NC(=O)CCSSC[C@@H](C(=O)N2CCC[C@H]2C(=O)N[C@H](CCCN=C(N)N)C(=O)NCC(N)=O)NC(=O)[C@H](CC(N)=O)NC1=O [Desmopressin] |  | -7.34 |  |
